Tested on: Trichophyton mentagrophytes
Test: Inhibitory test, filter paper disc on newly inoculated plate
Assay type: cell-based
Conditions: FIG. 20
Procedure: Sabouraud's liquid medium was inoculated with the chosen pathogen. The broths were then incubated for one week at 28° C. […] Monographed actives not already in a cream base were mixed with a respective cream base. […] Up to four different discs were placed on a plate. The plate was then incubated for 24-48 hours at the appropriate temperature depending on the pathogen. Photos were then taken at the completion of the 24-48 hours.

Clc1ccc(COC(Cn2ccnc2)c2ccc(Cl)cc2Cl)c(Cl)c1 (stereo not shown) [miconazole]
regrowth into clearance: became encroached by regrowth
